Test results: PMC5218480 (PLoS ONE, 2017)

Tested on: MV-4-11 cells
Experiment: Gene expression microarray analysis (Affymetrix PrimeView) and GSEA
Format: cell-based, human
Design: RFU PODN (11730768_x_at) / Fold change /veh PODN (11730768_x_at) / RFU LINC00158 (11744669_a_at) / Fold change /veh LINC00158 (11744669_a_at) / RFU DUSP10 (11751237_a_at) / Fold change /veh DUSP10 (11751237_a_at) / RFU ID3 (11757404_x_at) / Fold change /veh ID3 (11757404_x_at) / RFU PLEKHG5 (11737974_s_at) / Fold change /veh PLEKHG5 (11737974_s_at) / RFU LRRC4B (11730491_at) / Fold change /veh LRRC4B (11730491_at) / RFU GIMAP4 (11747438_a_at) / Fold change /veh GIMAP4 (11747438_a_at) / RFU KRT8 (11758183_x_at) / Fold change /veh KRT8 (11758183_x_at) / RFU CNN1 (11734310_a_at) / Fold change /veh CNN1 (11734310_a_at) / RFU VPS37D (11726825_at) / Fold change /veh VPS37D (11726825_at) / RFU C10orf10 (11716522_x_at) / Fold change /veh C10orf10 (11716522_x_at) / RFU KIR2DL2 /// KIR2DL4 /// KIR2DL5A /// KIR2DL5B /// KIR2DS1 /// KIR2DS2 /// KIR2DS3 /// KIR2DS4 /// KIR3DL3 /// KIR3DL3 /// KIR3DS1 (11738374_at) / Fold change /veh KIR2DL2 /// KIR2DL4 /// KIR2DL5A /// KIR2DL5B /// KIR2DS1 /// KIR2DS2 /// KIR2DS3 /// KIR2DS4 /// KIR3DL3 /// KIR3DL3 /// KIR3DS1 (11738374_at) / RFU C1QL1 (11718748_at) / Fold change /veh C1QL1 (11718748_at) / RFU TMPRSS4 (11747572_a_at) / Fold change /veh TMPRSS4 (11747572_a_at) / RFU HAMP (11756126_x_at) / Fold change /veh HAMP (11756126_x_at) / RFU RNFT2 (11725882_a_at) / Fold change /veh RNFT2 (11725882_a_at) / RFU NR4A2 (11747474_a_at) / Fold change /veh NR4A2 (11747474_a_at) / RFU ABCC12 (11746883_a_at) / Fold change /veh ABCC12 (11746883_a_at) / RFU TMEM136 (11760407_x_at) / Fold change /veh TMEM136 (11760407_x_at) / RFU CLDN22 /// WWC2 (11732394_at) / Fold change /veh CLDN22 /// WWC2 (11732394_at) / RFU HLA-DPB1 (11760878_x_at) / Fold change /veh HLA-DPB1 (11760878_x_at) / RFU SPINT1 (11716480_a_at) / Fold change /veh SPINT1 (11716480_a_at) / RFU GAP43 (11754022_s_at) / Fold change /veh GAP43 (11754022_s_at) / RFU A4GNT (11735810_at) / Fold change /veh A4GNT (11735810_at) / RFU PRB3 (11715151_x_at) / Fold change /veh PRB3 (11715151_x_at) / RFU TUBB4B (11761932_at) / Fold change /veh TUBB4B (11761932_at) / RFU CAPN14 (11732068_a_at) / Fold change /veh CAPN14 (11732068_a_at) / RFU TMCC2 (11721928_a_at) / Fold change /veh TMCC2 (11721928_a_at) / RFU IRGQ (11745062_a_at) / Fold change /veh IRGQ (11745062_a_at) / RFU FAM174B (11720279_a_at) / Fold change /veh FAM174B (11720279_a_at) / RFU TMPRSS4 (11748680_a_at) / Fold change /veh TMPRSS4 (11748680_a_at) / RFU FAM212B (11763350_a_at) / Fold change /veh FAM212B (11763350_a_at) / RFU PLEKHG5 (11743358_a_at) / Fold change /veh PLEKHG5 (11743358_a_at) / RFU ZSCAN30 (11745921_a_at) / Fold change /veh ZSCAN30 (11745921_a_at) / RFU CMKLR1 (11741424_a_at) / Fold change /veh CMKLR1 (11741424_a_at) / RFU LOC101060620 /// MAPK8IP1 (11723275_at) / Fold change /veh LOC101060620 /// MAPK8IP1 (11723275_at) / RFU SPTSSB (11747773_x_at) / Fold change /veh SPTSSB (11747773_x_at) / RFU PRSS12 (11739890_at) / Fold change /veh PRSS12 (11739890_at) / RFU BIN1 (11741810_x_at) / Fold change /veh BIN1 (11741810_x_at) / RFU WNT11 (11732464_a_at) / Fold change /veh WNT11 (11732464_a_at) / RFU C10orf10 (11716521_a_at) / Fold change /veh C10orf10 (11716521_a_at) / RFU C5orf56 (11738089_at) / Fold change /veh C5orf56 (11738089_at) / RFU CYB561 (11721691_x_at) / Fold change /veh CYB561 (11721691_x_at) / RFU ANKRD19P (11752326_a_at) / Fold change /veh ANKRD19P (11752326_a_at) / RFU OR2T12 /// OR2T33 /// OR2T8 (11738714_s_at) / Fold change /veh OR2T12 /// OR2T33 /// OR2T8 (11738714_s_at) / RFU VCAN (11748164_a_at) / Fold change /veh VCAN (11748164_a_at) / RFU JSRP1 (11732532_at) / Fold change /veh JSRP1 (11732532_at) / RFU KRTAP10-11 (11738290_x_at) / Fold change /veh KRTAP10-11 (11738290_x_at) / RFU MYO3A (11730013_a_at) / Fold change /veh MYO3A (11730013_a_at) / RFU EBF3 (11725865_a_at) / Fold change /veh EBF3 (11725865_a_at) / RFU CAMK2N1 (11719241_x_at) / Fold change /veh CAMK2N1 (11719241_x_at) / RFU C5orf56 (11738088_a_at) / Fold change /veh C5orf56 (11738088_a_at) / RFU OLFML3 (11715873_a_at) / Fold change /veh OLFML3 (11715873_a_at) / RFU LOC100653217 /// NTM (11731650_a_at) / Fold change /veh LOC100653217 /// NTM (11731650_a_at) / RFU MAPK11 (11762145_a_at) / Fold change /veh MAPK11 (11762145_a_at) / RFU FIZ1 (11724087_x_at) / Fold change /veh FIZ1 (11724087_x_at) / RFU OASL (11726364_x_at) / Fold change /veh OASL (11726364_x_at) / RFU SOX15 (11748057_x_at) / Fold change /veh SOX15 (11748057_x_at) / RFU CD79A (11719716_a_at) / Fold change /veh CD79A (11719716_a_at) / RFU HIST1H1D (11736915_at) / Fold change /veh HIST1H1D (11736915_at) / RFU CASKIN2 (11723855_a_at) / Fold change /veh CASKIN2 (11723855_a_at) / RFU LOC730098 (11760151_x_at) / Fold change /veh LOC730098 (11760151_x_at) / RFU OR4N2 (11742367_at) / Fold change /veh OR4N2 (11742367_at) / RFU PRRT2 (11749266_a_at) / Fold change /veh PRRT2 (11749266_a_at) / RFU SNX32 (11753110_a_at) / Fold change /veh SNX32 (11753110_a_at) / RFU CDHR5 (11726645_a_at) / Fold change /veh CDHR5 (11726645_a_at) / RFU RCAN1 (11760418_a_at) / Fold change /veh RCAN1 (11760418_a_at) / RFU FAM167A (11723789_a_at) / Fold change /veh FAM167A (11723789_a_at) / RFU FAM26E (11764081_at) / Fold change /veh FAM26E (11764081_at) / RFU ISYNA1 (11749810_s_at) / Fold change /veh ISYNA1 (11749810_s_at) / RFU ACY1 (11761880_at) / Fold change /veh ACY1 (11761880_at) / RFU 11764098_at / Fold change /veh 11764098_at / RFU SAMD14 (11745864_x_at) / Fold change /veh SAMD14 (11745864_x_at) / RFU NPB (11741838_a_at) / Fold change /veh NPB (11741838_a_at) / RFU TMPRSS6 (11731388_a_at) / Fold change /veh TMPRSS6 (11731388_a_at) / RFU KRTAP10-2 (11738614_at) / Fold change /veh KRTAP10-2 (11738614_at) / RFU ARHGAP8 /// PRR5-ARHGAP8 (11727945_x_at) / Fold change /veh ARHGAP8 /// PRR5-ARHGAP8 (11727945_x_at) / RFU KRTAP5-7 /// NADSYN1 (11734609_at) / Fold change /veh KRTAP5-7 /// NADSYN1 (11734609_at) / RFU RASL12 (11751679_a_at) / Fold change /veh RASL12 (11751679_a_at) / RFU CDKN2B (11736163_a_at) / Fold change /veh CDKN2B (11736163_a_at) / RFU PRF1 (11729649_at) / Fold change /veh PRF1 (11729649_at) / RFU, ZNF638 /// ZNF638-IT1 / Fold change vs veh, ZNF638 /// ZNF638-IT1 / RFU, PANK3 / Fold change vs veh, PANK3 / RFU, SH3YL1 / Fold change vs veh, SH3YL1 / RFU, ZEB2 / Fold change vs veh, ZEB2 / RFU, NRIP1 / Fold change vs veh, NRIP1 / RFU, PTTG1IP / Fold change vs veh, PTTG1IP / RFU, CAPN2 / Fold change vs veh, CAPN2 / RFU, MED14 / Fold change vs veh, MED14 / RFU, SNORA58 / Fold change vs veh, SNORA58 / RFU, C1orf63 / Fold change vs veh, C1orf63 / RFU, LRRFIP1 / Fold change vs veh, LRRFIP1 / RFU, NDUFAF7 / Fold change vs veh, NDUFAF7 / RFU, SLC12A2 / Fold change vs veh, SLC12A2 / RFU, IBTK / Fold change vs veh, IBTK / RFU, ESF1 / Fold change vs veh, ESF1 / Fold change vs veh, TMEM50B / RFU, TAOK1 / Fold change vs veh, TAOK1 / RFU, ACBD3 / Fold change vs veh, ACBD3 / RFU, TMA16 / Fold change vs veh, TMA16 / RFU, RWDD3 / Fold change vs veh, RWDD3 / RFU, BCAT1 / Fold change vs veh, BCAT1 / RFU, EDEM3 / Fold change vs veh, EDEM3 / RFU, TMEM33 / Fold change vs veh, TMEM33 / RFU, WDR75 / Fold change vs veh, WDR75 / RFU, AHCTF1 / Fold change vs veh, AHCTF1 / RFU, TFRC / Fold change vs veh, TFRC / RFU, ZDHHC17 / Fold change vs veh, ZDHHC17 / RFU, NOM1 / Fold change vs veh, NOM1 / RFU, ARL8B / Fold change vs veh, ARL8B / RFU, ZBTB11 / Fold change vs veh, ZBTB11 / RFU, TAMM41 / Fold change vs veh, TAMM41 / RFU, KIAA1704 /// LOC100996395 / Fold change vs veh, KIAA1704 /// LOC100996395 / RFU, ING1 / Fold change vs veh, ING1 / RFU, TRMT61B / Fold change vs veh, TRMT61B / RFU, FUBP3 / Fold change vs veh, FUBP3 / RFU, TP53 / Fold change vs veh, TP53 / RFU, TNKS2 / Fold change vs veh, TNKS2 / RFU, ZFP14 / Fold change vs veh, ZFP14 / RFU, ACTR2 / Fold change vs veh, ACTR2 / RFU, PPP3R1 / Fold change vs veh, PPP3R1 / RFU, PIK3R1 / Fold change vs veh, PIK3R1 / RFU, HNRNPA1 / Fold change vs veh, HNRNPA1 / RFU, RNF170 / Fold change vs veh, RNF170 / RFU, ZNF28 / Fold change vs veh, ZNF28 / RFU, RNGTT / Fold change vs veh, RNGTT / RFU, OGT / Fold change vs veh, OGT / RFU, BRD1 / Fold change vs veh, BRD1 / RFU, MARS / Fold change vs veh, MARS / RFU, ZNF655 / Fold change vs veh, ZNF655 / RFU, FAHD1 / Fold change vs veh, FAHD1 / RFU, BDP1 / Fold change vs veh, BDP1 / RFU, LRRCC1 / Fold change vs veh, LRRCC1 / RFU, ARID1A / Fold change vs veh, ARID1A / RFU, ZNF146 / Fold change vs veh, ZNF146 / RFU, ZNF330 / Fold change vs veh, ZNF330 / RFU, GPN3 / Fold change vs veh, GPN3 / RFU, C9orf123 / Fold change vs veh, C9orf123 / RFU, N4BP2L2 / Fold change vs veh, N4BP2L2 / RFU, ARFIP1 / Fold change vs veh, ARFIP1 / RFU, FAM179B / Fold change vs veh, FAM179B / RFU, BCL10 / Fold change vs veh, BCL10 / RFU, UHRF1BP1L / Fold change vs veh, UHRF1BP1L / RFU, BET1 / Fold change vs veh, BET1 / RFU, CNOT2 / Fold change vs veh, CNOT2 / RFU, ZNF268 / Fold change vs veh, ZNF268 / Fold change vs veh, ZNF507 / RFU, DGCR2 / Fold change vs veh, DGCR2 / RFU, WDSUB1 / Fold change vs veh, WDSUB1 / Fold change vs veh, HSP90B1 /// MIR3652 / RFU, ADSS / Fold change vs veh, ADSS / RFU, GK / Fold change vs veh, GK / RFU, ZNF148 / Fold change vs veh, ZNF148 / RFU, TAF9 / Fold change vs veh, TAF9 / RFU, SLC1A5 / Fold change vs veh, SLC1A5 / RFU, SLMO2 / Fold change vs veh, SLMO2 / RFU, ABCC4 / Fold change vs veh, ABCC4 / RFU, LOC101060439 /// RAP1B / Fold change vs veh, LOC101060439 /// RAP1B / RFU, RFX7 / Fold change vs veh, RFX7 / RFU, GTPBP10 / Fold change vs veh, GTPBP10 / RFU, CNEP1R1 / Fold change vs veh, CNEP1R1 / RFU, BIVM-ERCC5 /// ERCC5 / Fold change vs veh, BIVM-ERCC5 /// ERCC5 / RFU, ILF3 / Fold change vs veh, ILF3 / RFU 11762660_at / Fold change /veh 11762660_at / RFU VCAN (11757783_s_at) / Fold change /veh VCAN (11757783_s_at) / RFU DDX43 (11728927_at) / Fold change /veh DDX43 (11728927_at) / RFU KRT8 (11758188_x_at) / Fold change /veh KRT8 (11758188_x_at) / RFU NKD1 (11759106_at) / Fold change /veh NKD1 (11759106_at) / RFU SRD5A1 (11742802_a_at) / Fold change /veh SRD5A1 (11742802_a_at) / RFU TPSAB1 /// TPSB2 (11721975_s_at) / Fold change /veh TPSAB1 /// TPSB2 (11721975_s_at) / RFU GSTM3 (11746129_a_at) / Fold change /veh GSTM3 (11746129_a_at) / RFU IL23R (11737362_x_at) / Fold change /veh IL23R (11737362_x_at) / RFU TMEM51 (11727254_a_at) / Fold change /veh TMEM51 (11727254_a_at) / RFU PIWIL2 (11732686_x_at) / Fold change /veh PIWIL2 (11732686_x_at) / RFU ORM1 (11744905_x_at) / Fold change /veh ORM1 (11744905_x_at) / RFU CCDC152 (11743942_at) / Fold change /veh CCDC152 (11743942_at) / RFU ECM1 (11717891_a_at) / Fold change /veh ECM1 (11717891_a_at) / RFU IL23R (11748794_a_at) / Fold change /veh IL23R (11748794_a_at) / RFU TNFAIP8L3 (11732012_x_at) / Fold change /veh TNFAIP8L3 (11732012_x_at) / RFU MBOAT4 (11741988_at) / Fold change /veh MBOAT4 (11741988_at) / RFU 11764193_at / Fold change /veh 11764193_at / RFU TMEM53 (11763286_at) / Fold change /veh TMEM53 (11763286_at) / RFU MAGEB2 (11727129_at) / Fold change /veh MAGEB2 (11727129_at) / RFU TMEM200A (11744735_a_at) / Fold change /veh TMEM200A (11744735_a_at) / RFU CCDC152 (11751479_a_at) / Fold change /veh CCDC152 (11751479_a_at) / RFU FAM211A (11726209_a_at) / Fold change /veh FAM211A (11726209_a_at) / RFU RGS16 (11746705_a_at) / Fold change /veh RGS16 (11746705_a_at) / RFU VCAN (11755009_s_at) / Fold change /veh VCAN (11755009_s_at) / RFU RHOB (11743442_s_at) / Fold change /veh RHOB (11743442_s_at) / RFU RGS16 (11720943_a_at) / Fold change /veh RGS16 (11720943_a_at) / RFU RGS16 (11720944_at) / Fold change /veh RGS16 (11720944_at) / RFU, VPS4B / Fold change vs veh, VPS4B / RFU, CREB1 / Fold change vs veh, CREB1 / RFU, DNAJC13 / Fold change vs veh, DNAJC13 / RFU, GNAQ / Fold change vs veh, GNAQ / RFU, CDK5R1 / Fold change vs veh, CDK5R1 / RFU, ZRANB3 / Fold change vs veh, ZRANB3 / RFU, CUL4A / Fold change vs veh, CUL4A / RFU, CCNY / Fold change vs veh, CCNY / RFU, UFL1 / Fold change vs veh, UFL1 / RFU, COG3 / Fold change vs veh, COG3 / RFU, DIAPH2 / Fold change vs veh, DIAPH2 / RFU, SKA2 / Fold change vs veh, SKA2 / RFU, AFF3 / Fold change vs veh, AFF3 / RFU, LMF1 / Fold change vs veh, LMF1 / RFU, IPO11 / Fold change vs veh, IPO11 / RFU, DFFB / Fold change vs veh, DFFB / RFU, FOXP1 / Fold change vs veh, FOXP1 / RFU, CARD8 / Fold change vs veh, CARD8 / RFU, STRN3 / Fold change vs veh, STRN3 / RFU, ADK / Fold change vs veh, ADK / RFU, RASSF2 / Fold change vs veh, RASSF2 / RFU, WIPF1 / Fold change vs veh, WIPF1 / RFU, LARP1B / Fold change vs veh, LARP1B / RFU, RASA1 / Fold change vs veh, RASA1 / RFU, RB1 / Fold change vs veh, RB1 / RFU, PPFIA1 / Fold change vs veh, PPFIA1 / RFU, MAT2A / Fold change vs veh, MAT2A / RFU, CCT5 / Fold change vs veh, CCT5 / RFU, WDR92 / Fold change vs veh, WDR92 / RFU, CUX1 / Fold change vs veh, CUX1 / RFU, TTC7A / Fold change vs veh, TTC7A / RFU, TMEM135 / Fold change vs veh, TMEM135 / RFU, DEPTOR / Fold change vs veh, DEPTOR / RFU, CPM / Fold change vs veh, CPM / RFU, DNAJB6 / Fold change vs veh, DNAJB6 / RFU, CACNA2D3 / Fold change vs veh, CACNA2D3 / RFU, DTX4 / Fold change vs veh, DTX4 / RFU, TFCP2 / Fold change vs veh, TFCP2 / RFU, GMCL1 /// GMCL1P1 / Fold change vs veh, GMCL1 /// GMCL1P1 / RFU, AEBP2 / Fold change vs veh, AEBP2 / RFU, SNHG1 /// SNORD22 /// SNORD25 /// SNORD26 /// SNORD27 /// SNORD28 /// SNORD29 /// SNORD31 / Fold change vs veh, SNHG1 /// SNORD22 /// SNORD25 /// SNORD26 /// SNORD27 /// SNORD28 /// SNORD29 /// SNORD31 / Fold change (Aza/veh), C12orf56 (ProbeSet 11735607_a_at) / Fold change (ACY-1035/veh), C12orf56 (ProbeSet 11735607_a_at) / Fold change (Aza/veh), FGFR1OP (ProbeSet 11751329_s_at) / Fold change (ACY-1035/veh), FGFR1OP (ProbeSet 11751329_s_at) / Fold change (Aza/veh), VPS36 (ProbeSet 11739960_a_at) / Fold change (ACY-1035/veh), VPS36 (ProbeSet 11739960_a_at) / RFU SYPL1 (11715823_x_at) / Fold change /veh SYPL1 (11715823_x_at) / RFU IGFBP7 (11715501_s_at) / Fold change /veh IGFBP7 (11715501_s_at) / RFU REEP3 (11722064_at) / Fold change /veh REEP3 (11722064_at) / RFU IGLL1 (11728026_x_at) / Fold change /veh IGLL1 (11728026_x_at): dose or concentration left out as unconfirmed
Details: MV-4-11 cells, 48 hours

Nc1ncn([C@@H]2O[C@H](CO)[C@@H](O)[C@H]2O)c(=O)n1 [azacitidine]
Fold change /veh C10orf10 (11716522_x_at): 1.15
